{"source": "patent US11553718B2", "about": "“Mic reduction with lithium ions” (priority 2014, dated 2023)", "key": {"[1]": {"tested_on": "bacterial strain rOmyAK", "test": "microbe, parasite or virus in culture", "format": "cell-based, Pseudomonas mendocina", "conditions": "for bacterial count: rOmy AK; for MIC ratio (MICwithout Li/MICLi) / MIC active/aequeous: rOmyAK", "method": "(§1) When not otherwise indicated, the quoted bacterial counts (values are in cfu/plate) in the Tables here below are determined after 2 days following plate-out and incubation at 30° C. The counting method was as follows. The aqueous preparations were stirred well with a cotton swap (e.g. Applimed SA, No. 1102245); the excess aqueous preparation was removed by dipping it gently to the side of the aqueous preparation container, leaving approximately 200 mg of aqueous preparation on the swap. […] TSA plates were then incubated for 48 h at 30° C. Colony forming units (cfu) were then counted and reported as cfu/plate. Counts from 100 to 999 cfu per plate are reported as ≥100 cfu/plate. Counts of 1000 cfu and above per plate are reported as ≥1000 cfu/plate. Yeast and moulds were counted as described for bacteria with the following exceptions, a) Sabouraud Dextrose Agar (SDA) containing Chloramphenicol (e.g. heipha Dr. Miller GmbH, No. 1460030020) were used instead of TSA, b) SDA plates were incubated at 25° for 5 days and c) cfu were counted and reported after 48 h and 5 days of incubation. Yeast and moulds counts from 20 to 99 cfu per plate are reported as […]. Yeast and moulds counts of 100 cfu and above per plate are reported as >100 cfu/plate.\n(§2) For determining the MIC, the tested microorganism, i.e. the strain of bacteria and/or strain of yeast and/or strain of mould, were freshly grown until the end of the logarithmic growth phase according to the requirements of the individual species to a density of approximately 10^7-10^9 cells/ml.\n(§3) For example, fresh bacteria cultures of the bacteria E. coli, e.g. E. coli ATCC 11229, and S. aureus, e.g. S. aureus strains DSMZ 346, were prepared by inoculation of 3 ml liquid growth media (tryptic soy broth, e.g. Fluka Cat. No. 22092) from a stock culture and incubation for 16 to 20 h at 30° C. with agitation at 150 rotations per minutes (rpm) leading to a cell density of approximately 2×10^8 cells/ml. Fresh cultures of resistant bacteria, adapted to the conditions in biocide containing CaCO3 slurries, were prepared by inoculation of 50 g 75 wt.-% solid content CaCO3 slurry from a stock culture and incubated for 14 to 28 days at 30° C. without agitation.\n(§4) Lithium ions were added to the aqueous preparation (e.g. CaCO3 slurry) by the addition of a water soluble lithium salt. For example to 50 g CaCO3 slurry with a solid content of 75% (w/w) 1.177 ml of a 74 g/Li2CO3 suspension was added and mixed well leading to a lithium ion concentration of 172 mM or 1205 ppm in the water phase. As another example to 50 g CaCO3 slurry with a solid content of 75 wt.-% (w/w) 0.04 ml of a 292 g/L Li3Citrate (2M) solution was added and mixed well leading to a lithium ion concentration of 19 mM or 135 ppm in the water phase.\n(§5) The biocide to be tested was added to the aqueous preparation (e.g. CaCO3 slurry with or without lithium ions) in increasing concentrations starting from 0 ppm (without biocide). The concentrations ranged from concentrations higher than recommended by the supplier, to very low amounts (as low as 1 ppm or lower). Of each biocide concentration a 3 ml sample of aqueous preparation was combined with 20 μl fresh bacterial culture.\n(§6) All samples were incubated at 30° C. for 24 h. After incubation colony forming units (cfu) per plate (cfu/plate) were determined as described above under bacterial count.\n(§7) The MIC for bacteria is defined as the lowest concentration of biocide in the presence or absence of lithium ion amongst all samples tested, where the bacterial concentration dropped below 100 cfu/plate. The MIC for yeast and mould is defined as the lowest concentration of biocide in the presence or absence of lithium ion amongst all samples tested, where the microbial concentration dropped below 20 cfu/plate."}, "[2]": {"tested_on": "E. coli strain ATCC11229", "test": "MIC determination / bacterial count in CaCO3 slurry with or without lithium ions", "format": "cell-based", "conditions": "E. coli; Li^+ 197 mM (1380 ppm), Li2CO3", "method": "as §1, §2, §3, §4, §5, §6, §7"}, "[3]": {"tested_on": "S. aureus strain DSMZ 346", "test": "MIC determination / bacterial count in CaCO3 slurry with or without lithium ions", "format": "cell-based", "conditions": "S. aureus; Li^+ 329 mM (2305 ppm), Li2CO3", "method": "as §1, §2, §3, §4, §5, §6, §7"}, "[4]": {"tested_on": "rGDA/IT (rGDA-IT) strain", "test": "MIC determination in CaCO3 slurry with or without lithium ions", "format": "cell-based, Pseudomonas mendocina", "conditions": "Li^+ 197 mM (1380 ppm), Li2CO3", "method": "as §1, §2, §3, §4, §5, §6, §7"}}}
{"smiles": "Cn1sccc1=O", "note": "[MIT, 2-Methyl-2H-isothiazolin-3-one]", "values": [{"measurement": "bacterial count", "setting": "[1]; 18 ppm MIT, 329 mM Li^+", "value": "≥100", "unit": "cfu/plate"}, {"measurement": "bacterial count", "setting": "[1]; 18 ppm MIT, no Li^+", "value": "≥1000", "unit": "cfu/plate"}, {"measurement": "bacterial count", "setting": "[1]; 35 ppm MIT, 329 mM Li^+", "value": 68, "unit": "cfu/plate"}, {"measurement": "bacterial count", "setting": "[1]; 35 ppm MIT, no Li^+", "value": "≥100", "unit": "cfu/plate"}, {"measurement": "bacterial count", "setting": "[1]; 106 ppm MIT, 329 mM Li^+", "value": 0, "unit": "cfu/plate"}, {"measurement": "bacterial count", "setting": "[1]; 106 ppm MIT, no Li^+", "value": 0, "unit": "cfu/plate"}, {"measurement": "MIC ratio (MICwithout Li/MICLi)", "setting": "[1]; Li^+ 197 mM (1380 ppm), Li2CO3", "value": 1}, {"measurement": "MIC active/aequeous", "setting": "[1]; Li^+ 329 mM (2305 ppm), Li2CO3", "value": 35, "unit": "ppm"}, {"measurement": "MIC ratio (MICwithout Li/MICLi)", "setting": "[1]; Li^+ 329 mM (2305 ppm), Li2CO3", "value": 3}, {"measurement": "MIC ratio (MICwithout Li/MICLi)", "setting": "[1]; Li^+ 423 mM (2964 ppm), Li2CO3", "value": 6}, {"measurement": "MIC active/aequeous", "setting": "[1]; no Li^+", "value": 106, "unit": "ppm"}, {"measurement": "MIC ratio (MICwithout Li/MICLi)", "setting": "[2]", "value": ">2.5"}, {"measurement": "MIC ratio (MICwithout Li/MICLi)", "setting": "[3]", "value": ">5"}, {"measurement": "MIC ratio (MICwithout Li/MICLi)", "setting": "[4]", "value": 1.67}]}
